The record followed here is PubChem BioAssay (NCI).

Where “and” joins values, the source holds several entries; their conditions need not be identical. Equal entries are not always repeated.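 Cultured in 96-well plates, cells were exposed to test compound for 48 hours across five concentrations. GI50 = concentration required for 50% inhibition of growth. TGI: concentration producing complete growth inhibition.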 Bounds are passed on as bounds.

Test systems include DMS 273 small cell lung; M19-MEL melanoma; XF 498 CNS; SNB-78 CNS; MDA-N; RXF-631 renal; HS 578T breast.
Holding throughout (experiment): NCI tumour cell line growth inhibition, 48 h

Consider `Oc1ccccc1C=Nc1ccccc1N=Cc1ccccc1O`, for which the TGI in the assay on DMS 273 small cell lung, in the assay with M19-MEL melanoma and in the assay on XF 498 CNS was greater than 100 µM in each case.

As to `COc1ccc(/C=C/C(C(=O)O)C(=O)O)cc1`, the TGI with DMS 273 small cell lung, with M19-MEL melanoma, in the assay on SNB-78 CNS and in the assay on XF 498 CNS was greater than 100 µM each time.

As for `CC(C)c1ccc(O)c(=O)cc1`, the TGI was greater than 46.3 µM in the assay with DMS 273 small cell lung, greater than 70.9 µM in the assay with M19-MEL melanoma, greater than 91.1 µM with SNB-78 CNS and greater than 100 µM in the assay on XF 498 CNS. Moreover, the GI50 in the assay with MDA-N is 22.7 µM.

Regarding `CCc1cccc(C(C)CC)c1NC(=O)CC1C(=O)Nc2ccccc2S1=O` (stereo not drawn), the TGI was greater than 100 µM with DMS 273 small cell lung, greater than 100 µM in the assay with M19-MEL melanoma, greater than 100 µM with RXF-631 renal and 92.9 µM in the assay with SNB-78 CNS.

Regarding `C=CCNC(=S)OCCCCCCCCCC`, the TGI is 37.3 µM with DMS 273 small cell lung, 32.5 µM in the assay on M19-MEL melanoma, 36.7 µM in the assay with SNB-78 CNS and 29.7 µM in the assay with XF 498 CNS.

Turning to `O=C(/C=C/c1ccc(Cl)cc1)c1ccncc1`, the TGI with DMS 273 small cell lung was greater than 100 µM; with M19-MEL melanoma, 68.7 µM; in the assay with RXF-631 renal, greater than 100 µM; with SNB-78 CNS it was greater than 100 µM.

In the case of `COC(=O)C(=O)C(C#N)c1ccc(Cl)c(Cl)c1` (stereo not drawn), the TGI with DMS 273 small cell lung, with M19-MEL melanoma, in the assay on RXF-631 renal, in the assay on SNB-78 CNS and in the assay on XF 498 CNS was greater than 100 µM each time.

As to `O=C(CC(=O)c1ccccc1NC1=Cc2ccccc2C(=O)C1=O)C(=O)NC1=C(Cl)C(=O)c2ccccc2C1=O`, the TGI with DMS 273 small cell lung worked out at 6.8 µM; in the assay with HS 578T breast, 5.64 µM; in the assay with M19-MEL melanoma it was 0.931 µM; in the assay on MDA-N it was 3.15 µM; in the assay on RXF-631 renal, 31.9 µM; in the assay with SNB-78 CNS, 8.79 µM. In the assay with XF 498 CNS, this compound showed a TGI of 4.66 µM.

For `Cc1nn(C)c(=S)n(C)c1=O`, the TGI in the assay on DMS 273 small cell lung is 11 µM; in the assay on M19-MEL melanoma, greater than 100 µM; with SNB-78 CNS, greater than 100 µM; in the assay on XF 498 CNS it was 5.31 µM.

On to `CC1=C(c2cc(C(=O)Nc3cccc(C(F)(F)F)c3)nc(NC#N)n2)Sc2ccccc2N1`, for which the TGI with DMS 273 small cell lung, in the assay on M19-MEL melanoma, in the assay on RXF-631 renal and in the assay with SNB-78 CNS was greater than 100 µM throughout.

As for `NC(=S)N/N=C(\C(=O)Nc1ccc(Cl)c(Cl)c1)C1=NN(c2ccccc2)C(c2cccc([N+](=O)[O-])c2)CC1=O` (stereo not drawn), the TGI is 45.2 µM in the assay on DMS 273 small cell lung; 50.5 µM in the assay on M19-MEL melanoma; greater than 100 µM with RXF-631 renal; greater than 100 µM in the assay with SNB-78 CNS; greater than 100 µM with XF 498 CNS.

In the case of `CN(C)CCNC(=O)c1cccc2c1nc(-c1ccccn1)c1ccccc12`, the TGI with DMS 273 small cell lung stood at 29.9 µM; in the assay on M19-MEL melanoma it was 32 µM; with SNB-78 CNS, 67.9 µM.

Regarding `COC(=O)[C@H](Cc1ccccc1)NC(=O)[C@@H](OC)[C@@H]1Cc2cc3cc(OC4CC(OC5CC(O)C(O)C(C)O5)C(O)C(C)O4)c(C)c(O)c3c(O)c2C(=O)[C@H]1OC1CC(OC2CC(OC3CC(C)(O)C(O)C(C)O3)C(O)C(C)O2)C(O)C(C)O1` (stereo partly drawn), in the assay on HS 578T breast, the GI50 was 0.0131 µM and the TGI worked out at 0.348 µM.

With `O=C(O/N=C1/CCCC/C1=C\c1ccccc1)c1ccc(Cl)cc1`, the TGI is greater than 100 µM in the assay on DMS 273 small cell lung, greater than 100 µM in the assay with M19-MEL melanoma, greater than 100 µM with SNB-78 CNS and 48.1 µM with XF 498 CNS.

Regarding `C=C(C(=O)OC)[C@@H]1C[C@@H](O)[C@]2(C)CC/C=C(\C)CCC[C@H](C)[C@H](O)C1O2`, in the assay on HS 578T breast, the GI50 is 32.8 µM and the TGI was greater than 100 µM.

With `Oc1ccc(-c2nc3ccc4[nH]ncc4c3c3c2CCCC3)c2cccnc12`, in the assay on HS 578T breast, the GI50 was 0.163 µM and the TGI was 2.67 µM.

Consider `COc1ccc(Cn2cc(Cn3c(=O)c(-c4nc5ccccc5[nH]4)cc4ccccc43)nn2)c(OC)c1OC`, for which the GI50 with HS 578T breast was 0.0778 µM and 0.168 µM.

As for `O=C(Nc1ccccc1F)c1ccc(NC2=C(Cl)C(=O)N(Cc3ccccc3)C2=O)cc1`, in the assay on HS 578T breast, the GI50 was 2.95 µM and the TGI is 9.4 µM.

Consider `Cc1cccc(N2C(=O)C(=O)C(c3nc4ccccc4s3)C(=O)C2=O)c1C`, for which the TGI with DMS 273 small cell lung, with M19-MEL melanoma, in the assay with RXF-631 renal and in the assay on SNB-78 CNS was greater than 100 µM throughout.

Regarding `N#Cc1nc(Nc2ccc([N+](=O)[O-])cc2)sc1N`, the TGI is greater than 100 µM in the assay on DMS 273 small cell lung; greater than 100 µM in the assay with M19-MEL melanoma; greater than 75 µM in the assay on RXF-631 renal; greater than 93 µM in the assay with SNB-78 CNS; greater than 100 µM in the assay with XF 498 CNS.

With `COc1ccc(-c2nn(-c3cccc(NC(=O)Nc4cccc(C(F)(F)F)c4)c3)cc2-c2ccncc2)cc1Cl`, in the assay on HS 578T breast, the GI50 is 1.65 µM and the TGI was 7.84 µM.

In the case of `CN1c2ccccc2C(C)(C)C12CC(c1ccc(Cl)c(S(=O)(=O)N3CCCC3)c1)=NO2` (stereo not drawn), in the assay on HS 578T breast, the GI50 is greater than 100 µM and the TGI was greater than 100 µM.

With `O=[N+]([O-])c1ccc(O)c2ncccc12`, in the assay with HS 578T breast, the TGI is greater than 100 µM.

As to `COc1cccc(C2C(C#N)=C(N)Oc3cc(OC)ccc32)c1` (stereo not drawn), in the assay on HS 578T breast, the GI50 is 0.0279 µM and the TGI is 10.3 µM.

Regarding `COc1ccc2c(c1)C(=O)c1c-2n(CCCCl)c(=O)c2cc(N(C)C)ccc12`, in the assay with HS 578T breast, the GI50 is 26.8 µM and the TGI was greater than 100 µM.
